“Also recorded” adds a separate entry of the source. Where a name gives a salt, the structure may show the parent alone. Read-outs that look alike come from different tables or passages of the source.
Legend:
rats [1] = experiment: Carrageenan paw edema model; type: in vivo; settings: rat
rat spinal cord cultures = experiment: Neuroprotection against substance P or glutamate toxicity in primary spinal cord cultures (LDH release); type: cell-based
mice [2] = experiment: Mouse Hot Plate Paradigm; type: in vivo; settings: 30 minutes prior to testing, 55° C.; for minimal effective dose: ip, 0.5 h, i.p., read-out: MED Hot plate model (μmol/kg, i.p.)
mice [3] = type: in vivo; settings: mouse, i.p.
Method: Motor coordination was assessed using an accelerating rotarod apparatus (Omnitech Electronics, Inc., Columbus, Ohio). Locomotor activity was monitored under dim light in a 41×41 cm. open field using a photobeam activity system (San Diego Instruments, San Diego, Calif.). The mouse was placed on a 3.5 cm diameter rod which increased in speed from 0 to 40 rpm over 120 seconds. The time required for the mouse to fall from the rod was recorded with a maximum score of 120 seconds. Twenty-five min after receiving an i.p. injection, the mice were placed in the open field for 5 min. After removal from the open field (i.e., 30 min after injection), they were immediately tested on the rotarod. Body temperature was assessed using a probe inserted 3 cm into the rectum approximately 35 min after injection. (YSI Tele-Thermometer, Yellow Springs Instrument Co., Inc., Yellow Springs, Ohio). Diazepam (10.5 μmol/kg, i.p.) was used as a positive control.

[4] = molecular target: T1, neuronal nicotinic acetylcholine receptors (Rattus norvegicus, UniProt P09483+P12390); experiment: [3H]-cytisine binding to neuronal nicotinic acetylcholine receptors, whole rat brain membranes; settings: [3H]-cytisine 1.25 nM, whole rat brain membranes; read-out: [3H] CYT Ki
T1 construct: crude synaptic membrane preparations from whole rat brain; from tissue; host or cells: whole rat brain, crude synaptic membranes
T1 sequence (P09483 31-630): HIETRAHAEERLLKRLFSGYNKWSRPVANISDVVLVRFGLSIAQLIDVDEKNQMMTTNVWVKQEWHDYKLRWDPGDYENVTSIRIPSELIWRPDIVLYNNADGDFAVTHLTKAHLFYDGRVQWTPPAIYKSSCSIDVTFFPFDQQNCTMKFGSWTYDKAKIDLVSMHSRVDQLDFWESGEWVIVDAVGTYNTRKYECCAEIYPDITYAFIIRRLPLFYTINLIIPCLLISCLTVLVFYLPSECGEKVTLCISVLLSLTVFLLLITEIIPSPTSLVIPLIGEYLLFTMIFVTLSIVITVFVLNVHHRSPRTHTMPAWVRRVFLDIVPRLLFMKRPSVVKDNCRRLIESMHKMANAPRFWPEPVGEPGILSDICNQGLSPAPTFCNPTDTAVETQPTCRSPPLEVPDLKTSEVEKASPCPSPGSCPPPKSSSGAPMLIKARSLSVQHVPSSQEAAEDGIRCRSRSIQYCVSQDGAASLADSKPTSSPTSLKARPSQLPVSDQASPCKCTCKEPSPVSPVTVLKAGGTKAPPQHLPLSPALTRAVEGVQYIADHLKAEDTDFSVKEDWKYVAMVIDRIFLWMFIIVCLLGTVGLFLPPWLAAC
T1 sequence (P12390 25-500): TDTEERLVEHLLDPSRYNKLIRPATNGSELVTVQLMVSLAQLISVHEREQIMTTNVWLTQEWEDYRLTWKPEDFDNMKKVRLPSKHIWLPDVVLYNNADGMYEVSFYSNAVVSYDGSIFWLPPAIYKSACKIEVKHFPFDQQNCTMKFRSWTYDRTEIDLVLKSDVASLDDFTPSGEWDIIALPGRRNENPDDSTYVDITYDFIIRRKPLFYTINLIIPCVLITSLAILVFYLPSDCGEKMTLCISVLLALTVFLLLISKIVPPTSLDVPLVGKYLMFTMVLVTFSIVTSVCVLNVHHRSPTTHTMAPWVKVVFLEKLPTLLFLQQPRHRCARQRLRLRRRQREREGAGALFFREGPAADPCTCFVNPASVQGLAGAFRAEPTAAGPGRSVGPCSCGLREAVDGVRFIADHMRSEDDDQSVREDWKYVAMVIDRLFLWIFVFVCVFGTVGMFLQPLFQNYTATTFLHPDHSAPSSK
In short: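 Crude synaptic membranes from whole rat brain (125-150 μg protein) incubated with test compound and 1.25 nM [3H]-cytisine for 60 min at 4 °C in Tris-Cl buffer pH 7.4 with Na/K/Mg/Ca salts. Filtration through PEI-soaked filters; nonspecific binding with 10 μM (−)-nicotine; values as percentage of total binding.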

[5] = molecular target: T2, peripheral ganglionic receptors (Homo sapiens, UniProt P30926+P32297); experiment: 86Rb+ flux activation in IMR-32 human neuroblastoma cells; type: cell-based; settings: 1 μM compound, % of maximum response to (S)-nicotine
T2 construct: Cells of the IMR-32 human neuroblastoma clonal cell line (ATCC, Rockville, Md.); host or cells: IMR-32 human neuroblastoma cells
T2 sequence (P32297 32-505): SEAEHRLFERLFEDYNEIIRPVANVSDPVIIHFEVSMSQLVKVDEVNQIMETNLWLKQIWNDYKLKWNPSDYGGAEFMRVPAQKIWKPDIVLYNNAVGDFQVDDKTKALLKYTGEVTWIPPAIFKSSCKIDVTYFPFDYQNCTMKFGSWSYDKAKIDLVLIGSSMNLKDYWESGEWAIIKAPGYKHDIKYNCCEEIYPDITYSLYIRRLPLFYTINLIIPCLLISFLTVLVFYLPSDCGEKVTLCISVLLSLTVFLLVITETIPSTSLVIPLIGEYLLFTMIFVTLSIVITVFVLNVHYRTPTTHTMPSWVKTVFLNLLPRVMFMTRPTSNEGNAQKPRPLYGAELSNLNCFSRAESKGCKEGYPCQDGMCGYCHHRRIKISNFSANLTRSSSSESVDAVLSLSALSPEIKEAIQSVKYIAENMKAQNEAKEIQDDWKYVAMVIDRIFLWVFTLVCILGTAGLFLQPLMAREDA
T2 sequence (P30926 22-498): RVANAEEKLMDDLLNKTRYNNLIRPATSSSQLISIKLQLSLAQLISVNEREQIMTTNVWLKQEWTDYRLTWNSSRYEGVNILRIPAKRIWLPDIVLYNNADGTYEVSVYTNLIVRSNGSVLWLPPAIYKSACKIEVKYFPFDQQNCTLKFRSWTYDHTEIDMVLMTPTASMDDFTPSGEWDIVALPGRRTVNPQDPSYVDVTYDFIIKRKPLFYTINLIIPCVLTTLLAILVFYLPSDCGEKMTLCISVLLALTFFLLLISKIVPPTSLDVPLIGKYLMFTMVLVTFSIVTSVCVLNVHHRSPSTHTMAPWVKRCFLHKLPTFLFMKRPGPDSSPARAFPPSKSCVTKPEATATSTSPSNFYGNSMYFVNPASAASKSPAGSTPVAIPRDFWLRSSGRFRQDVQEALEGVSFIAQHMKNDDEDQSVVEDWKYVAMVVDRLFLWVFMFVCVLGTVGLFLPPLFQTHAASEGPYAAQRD
Method: Protocol for the Determination of Ability of Nicotinic Acetylcholine Receptor Ligands to Activate Peripheral Ganglionic Receptors
Cells of the IMR-32 human neuroblastoma clonal cell line (ATCC, Rockville, Md.) were maintained in a log phase of growth according to established procedures. Experimental cells were seeded at a density of 500,000 cells/mL into a 24-well tissue culture dish. Plated cells were allowed to proliferate for at least 48 hours before loading with 2 μCi/mL of ^86Rb^+ (35 Ci/mmol) overnight at 37° C. The ^86Rb^+ efflux assays were performed according to previously published protocols (Lukas, R. J., J. Pharmacol. Exp. Ther., 265: 294-302, 1993) except serum-free Dulbecco's Modified Eagle's Medium was used during the ^86Rb^+ loading, rinsing, and agonist-induced efflux steps. Data reflect the activation of ^86Rb^+ flux at a concentration of 1 μM, and reflect the response as a percentage of the maximum response elicited by (S)-nicotine.

beagle dogs = type: in vivo; settings: anesthetized dog, i.v. bolus 10 nmol/kg
Method: Male beagle dogs were anesthetized with pentobarbital (35 mg/kg, i.v.) followed by constant i.v. infusion of pentobarbital (5 mg/kg/h). The animals were ventilated with room air by means of a mechanical respiration pump. Blood pressure was measured using a dual tip micromanometer catheter (Millar, Model SPC-770, 7F) inserted into the heart left ventricle via the carotid artery. Compounds were injected into the right femoral vein via catheter. Hemodynamic variables were computed using XYZ Real Time Spreadsheet software on a signal processing workstation (Modular Instruments, Inc.). Sixty minutes were allowed following surgery to achieve a steady-state baseline for the measured variables. Test compounds were administered by i.v. bolus (10 nmol/kg) and compared for their relative ability to elicit changes in blood pressure and heart rate over a five minute data collection period.

[6] = molecular target: neuromuscular junction nicotinic acetylcholine receptor (Tetronarce californica, UniProt P02710+P02714+P02718); experiment: biochemical; type: binding, Torpedo Californica
neuromuscular junction nicotinic acetylcholine receptor, sequence (P02714 18-506): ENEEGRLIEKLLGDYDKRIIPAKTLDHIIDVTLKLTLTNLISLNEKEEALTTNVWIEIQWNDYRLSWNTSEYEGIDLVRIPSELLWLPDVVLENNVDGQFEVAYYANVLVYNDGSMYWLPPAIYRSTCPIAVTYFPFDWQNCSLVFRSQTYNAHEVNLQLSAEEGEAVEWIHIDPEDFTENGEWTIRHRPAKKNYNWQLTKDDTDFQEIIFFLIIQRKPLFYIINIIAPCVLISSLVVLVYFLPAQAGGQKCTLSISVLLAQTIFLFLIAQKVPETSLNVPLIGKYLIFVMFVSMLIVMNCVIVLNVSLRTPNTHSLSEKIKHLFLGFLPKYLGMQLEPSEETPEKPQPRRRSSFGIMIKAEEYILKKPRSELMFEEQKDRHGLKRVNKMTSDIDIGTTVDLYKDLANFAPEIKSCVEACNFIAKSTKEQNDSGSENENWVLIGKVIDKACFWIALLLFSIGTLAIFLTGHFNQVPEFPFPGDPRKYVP
neuromuscular junction nicotinic acetylcholine receptor, sequence (P02710 25-461): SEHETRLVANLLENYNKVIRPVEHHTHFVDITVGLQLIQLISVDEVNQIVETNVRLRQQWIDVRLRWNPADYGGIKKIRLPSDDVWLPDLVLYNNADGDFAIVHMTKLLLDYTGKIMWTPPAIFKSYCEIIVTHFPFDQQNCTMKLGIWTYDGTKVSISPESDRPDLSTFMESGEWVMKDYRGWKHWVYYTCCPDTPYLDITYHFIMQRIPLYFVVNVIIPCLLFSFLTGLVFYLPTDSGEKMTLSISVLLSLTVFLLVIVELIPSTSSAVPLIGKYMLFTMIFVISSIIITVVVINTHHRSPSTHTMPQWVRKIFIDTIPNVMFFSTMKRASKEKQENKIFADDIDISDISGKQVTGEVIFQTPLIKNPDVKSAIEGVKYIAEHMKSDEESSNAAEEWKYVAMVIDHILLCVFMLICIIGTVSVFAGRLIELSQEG
neuromuscular junction nicotinic acetylcholine receptor, sequence (P02712 25-493, further chain): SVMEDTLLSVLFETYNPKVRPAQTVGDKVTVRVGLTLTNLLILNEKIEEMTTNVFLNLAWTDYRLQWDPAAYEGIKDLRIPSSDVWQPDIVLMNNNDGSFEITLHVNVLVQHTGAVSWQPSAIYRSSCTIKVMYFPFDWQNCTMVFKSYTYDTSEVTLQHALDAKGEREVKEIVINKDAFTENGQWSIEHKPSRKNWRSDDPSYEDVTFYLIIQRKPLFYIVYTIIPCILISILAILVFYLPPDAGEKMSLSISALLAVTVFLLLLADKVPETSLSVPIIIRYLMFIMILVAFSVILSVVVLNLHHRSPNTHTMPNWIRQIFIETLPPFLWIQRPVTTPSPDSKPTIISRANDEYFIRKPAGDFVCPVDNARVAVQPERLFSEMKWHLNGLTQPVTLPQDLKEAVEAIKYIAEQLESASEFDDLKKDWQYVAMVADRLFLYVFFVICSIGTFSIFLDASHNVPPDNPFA
neuromuscular junction nicotinic acetylcholine receptor, sequence (P02718 22-522): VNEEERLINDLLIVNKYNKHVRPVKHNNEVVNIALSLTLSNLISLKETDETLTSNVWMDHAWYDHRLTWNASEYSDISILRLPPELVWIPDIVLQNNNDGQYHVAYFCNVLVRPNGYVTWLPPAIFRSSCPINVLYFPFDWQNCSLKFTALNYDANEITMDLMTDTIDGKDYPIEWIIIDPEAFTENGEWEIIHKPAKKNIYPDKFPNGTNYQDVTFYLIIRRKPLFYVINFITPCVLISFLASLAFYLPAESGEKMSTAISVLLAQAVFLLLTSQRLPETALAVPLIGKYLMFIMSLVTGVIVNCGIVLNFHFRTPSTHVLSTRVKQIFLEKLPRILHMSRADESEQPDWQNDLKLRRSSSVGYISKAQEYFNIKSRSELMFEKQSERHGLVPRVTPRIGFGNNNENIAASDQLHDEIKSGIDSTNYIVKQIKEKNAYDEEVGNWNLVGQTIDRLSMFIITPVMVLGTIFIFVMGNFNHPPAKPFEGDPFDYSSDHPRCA

rats [7] = experiment: Chung Model of Neuropathic Pain; type: in vivo; settings: rat, 50% threshold to VonFrey hairs
rats [8] = experiment: Chung Model of Neuropathic Pain following repeated dosing; type: in vivo; settings: rat; for anti-allodynic effect following repeated dosing: in vivo, ip
Method: Animals were surgically prepared as described above for the Chung model. For assessment of each test compound, two treatment groups (6 animals each) were established. One group was injected (i.p.) with test compound twice daily for 5 days, and the other group was injected on the same schedule with saline. Responses to von Frey hairs were assessed as described above both before, and 15 minutes after, injection on the first 2 days and also on the 5th day. The saline-treatment group was given saline for the first 4 days and on the morning of the 5th day, but received a challenge of the test compound in the afternoon of the fifth day.

rats [9] = experiment: Formalin Model of Persistent Pain; type: in vivo; settings: rat, oral, 0.1-0.3 umol/kg, 15 minutes prior to formalin, second phase
mice [10] = settings: mouse, in vivo, ip
Method: Compounds were co-mixed in a syringe, and co-administered via the intraperitoneal route 30 min prior to testing in the mouse hot-plate paradigm as indicated above. Separate groups of animals (n=7-8/group) were used for each dose group.

SMILES: CNC1(C)C2CCC(C2)C1(C)C (centres unmarked) [mecamylamine, reference compound]
- prevention of the paw edema effect of Example 4 by nicotinic antagonist (rats [1]): prevented
- prevention of the paw edema effect of Example 4 by nicotinic antagonist (rats [1]; listed as mecaamylamine): prevents this effect
- block of the neuroprotective effect by nicotinic antagonists (rat spinal cord cultures; mecamylamine 10 μM, MLA 10 nM, α-BTX 1 nM): blocked

SMILES: Fc1ccc(OC[C@@H]2CCN2)cn1 [Example 9, 5-(2S)-Azetidinylmethyloxy)-2-fluoropyridine dibenzoate]
- minimal effective dose (mice [2]): 0.62 µmol/kg
- dose showing rotarod impairments (mice [3]; in 2 of 3 experiments): 0.62 µmol/kg
- Ki [4]: 0.16 nM
- IMR-32 % maximal nicotine response at 1 μM Cmpd conc'n [5]: 103%

SMILES: Cl.Cl.Clc1ccc(OC[C@@H]2CCN2)cn1 [Example 19, 5-((2S)-Azetidinylmethyloxy)-2-chloropyridine dihydrochloride]
- Increase in Diastolic Blood Pressure (mm Hg) (beagle dogs): 67.3 ± 3.2 mm Hg
- Increase in Heart Rate (beats/min) (beagle dogs): 26.0 ± 7.8 beats/min
- MED Hot plate model (μmol/kg, i.p.) (mice [2]): 0.62 µmol/kg
- Ki [4]: 0.04 nM
- Ki ([6]; read-out: Ki (nM) α-bungarotoxin): 1300 nM
- MED Chung model (μmol/kg, i.p.) (rats [7]): 0.3 µmol/kg
- IMR-32 % maximal nicotine response at 1 μM Cmpd conc'n [5]: 173%
- less potent as a neuroprotectant in spinal cord (rat spinal cord cultures; relative to compound of Example 4): 10 fold

SMILES: CN1CC[C@]23c4c5ccc(O)c4O[C@H]2[C@@H](O)C=C[C@H]3[C@H]1C5 [morphine, reference compound]
- anti-allodynic effect following repeated dosing (rats [8]): significantly reduced

SMILES: Fc1ccc(OCC2CCN2)cn1 [Example 8, 5-(2R)-Azetidinylmethyloxy)-2-fluoropyridine dibenzoate]
- minimal effective dose (mice [2]): 1.9 µmol/kg
- dose at which a rotarod effect was reached (mice [3]): 19
- Ki [4]: 0.06 nM
- MED Chung model (μmol/kg, i.p.) (rats [7]): 0.62 µmol/kg
- IMR-32 % maximal nicotine response at 1 μM Cmpd conc'n [5]: 46%

SMILES: Clc1ccc(OC[C@H]2CCN2)cn1 [Example 1, 5-((2R)-Azetidinylmethoxy)-2-chloropyridine]
- Increase in Diastolic Blood Pressure (mm Hg) (beagle dogs): 23.2 ± 4.6 mm Hg
- Increase in Heart Rate (beats/min) (beagle dogs): 7.8 ± 2.9 beats/min
- blood pressure increase as fraction of that seen with Example 19 (beagle dogs): ⅓
- heart rate increase as fraction of that seen with Example 19 (beagle dogs): ⅓

SMILES: Clc1ccc(OC[C@H]2CCN2)cn1 [Example 4, 5-((2R)-Azetidinylmethyloxy)-2-chloropyridine hydrochloride]
- minimal effective dose (mice [2]): 0.62 µmol/kg
- ED30 reduction of carrageenan-induced paw edema (rats [1]; i.p.): 0.21 µmol/kg
- efficacy to reduce paw edema compared with dexamethasone (rats [1]; i.p., hydrochloride): as effective as dexamethansone; also recorded: as efficacious as dexamethasone
- Ki [4]: 0.05 nM
- Ki [6]: 16600 nM
- reduced affinity for the neuromuscular junction nicotinic acetylcholine receptor [6]: 12.8 fold
- antinociceptive effects in the Formalin Model (rats [9]): produced significant antinociceptive effects
- MED Chung model (μmol/kg, i.p.) (rats [7]): 0.3 µmol/kg
- anti-allodynic effects during each test session (rats [8]; 0.3 μmol/kg, i.p., b.i.d., 5 days): Significant anti-allodynic effects
- anti-allodynic effect following repeated dosing (rats [8]): does not decrease following repeated dosing
- IMR-32 % maximal nicotine response at 1 μM Cmpd conc'n [5]: 97%
- antinociceptive activity combined with effective doses of morphine (mice [10]): enhanced antinociceptive activity
- antinociceptive activity combined with subthreshold doses of morphine (mice [10]): can produce effective antinociceptive activity
- antinociceptive effects when coadministered with morphine (mice [10]): produced effective antinociceptive effects
- protection against SP- and Glu-induced neurotoxicity (rat spinal cord cultures; SP 30 μM or Glu 300 μM, rat spinal cord cultures, hydrochloride): protects against SP-induced neurotoxicity; also recorded: reduces both SP and Glu-induced neurotoxicity
- EC50 (rat spinal cord cultures; SP and Glu-induced neurotoxicity, rat spinal cord cultures): 10000 nM

Source: patent publication US6403575B1, “3-Pyridyl enantiomers and their use as analgesics” (Abbott Laboratories, priority 1996, dated 2002)
